Among the data in ChEMBL document CHEMBL4808176, “Optimization of Truncated Glucagon Peptides to Achieve Selective, High Potency, Full Antagonists” (J Med Chem, 2021) are Activity and IC50 values, retold here.

The target in assay [1] is T1, Glucagon receptor (Homo sapiens, UniProt P47871). As to the kind of experiment: Partial antagonist activity at human GCGR expressed in HEK293 cells assessed as inhibition of glucogon-induced cAMP production. It counts as functional, cell-based. As to conditions: filed as antagonist.
T1 sequence (P47871 whole entry): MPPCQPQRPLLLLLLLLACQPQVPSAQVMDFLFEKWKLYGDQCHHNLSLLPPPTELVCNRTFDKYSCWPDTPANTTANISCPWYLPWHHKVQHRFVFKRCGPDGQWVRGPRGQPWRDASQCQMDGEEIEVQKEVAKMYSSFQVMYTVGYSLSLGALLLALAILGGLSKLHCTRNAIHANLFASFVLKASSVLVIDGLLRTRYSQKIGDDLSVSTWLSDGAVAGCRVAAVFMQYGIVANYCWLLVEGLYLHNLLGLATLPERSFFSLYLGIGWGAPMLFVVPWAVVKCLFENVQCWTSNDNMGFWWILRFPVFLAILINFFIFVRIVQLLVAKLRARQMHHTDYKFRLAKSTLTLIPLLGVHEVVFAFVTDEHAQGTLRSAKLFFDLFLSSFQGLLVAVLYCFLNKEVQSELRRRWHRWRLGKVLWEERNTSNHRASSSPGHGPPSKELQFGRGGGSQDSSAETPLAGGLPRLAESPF
The target in assay [2] is T1, Glucagon receptor. As to the kind of experiment: Displacement of 125I-glucagon from human GCGR expressed in HEK293 cells membranes incubated for 6 hrs by liquid scintillation counting method. The format is cell membranes, Membrane. (In general: Loss of bound radioactivity is the signal in a displacement assay; it reports binding, not function.)
In assay [3] the target is T1, Glucagon receptor. The assay can be described thus: Antagonist activity at human GCGR expressed in HEK293 cells assessed as inhibition of glucogon-induced cAMP production. The format is functional, cell-based.

Active and inactive are the calls of the source. The rule behind the calls is not given here. Peptide text beside a SMILES is read from it.

As a reminder, the IC50 is the point on the concentration scale where inhibition reaches its midpoint.

Consider `CSCC[C@H](NC(=O)[C@H](CC(C)C)NC(=O)[C@H](Cc1c[nH]c2ccccc12)NC(=O)[C@H](CCC(N)=O)NC(=O)[C@@H](NC(=O)[C@H](Cc1ccccc1)NC(=O)[C@H](CC(=O)O)NC(=O)[C@H](CCC(N)=O)NC(=O)[C@H](C)NC(=O)[C@H](CCCNC(=N)N)NC(=O)[C@H](CCCNC(=N)N)NC(=O)[C@H](CO)NC(=O)[C@H](CC(=O)O)NC(=O)[C@H](CC(C)C)NC(=O)[C@H](Cc1ccc(O)cc1)NC(=O)[C@H](CCCCN)NC(=O)[C@H](CO)NC(=O)[C@H](Cc1ccc(O)cc1)NC(=O)CN(CCC(=O)O)C(=O)[C@H](CO)NC(=O)[C@@H](NC(=O)[C@H](Cc1ccccc1)NC(=O)[C@@H](NC(=O)CNC(=O)[C@H](CCC(N)=O)NC(=O)[C@@H](N)CO)[C@@H](C)O)[C@@H](C)O)C(C)C)C(=O)N[C@@H](CC(N)=O)C(=O)N[C@H](C(N)=O)[C@@H](C)O`, for which the result on Glucagon receptor [1] was Active.
With `CSCC[C@H](NC(=O)[C@H](CC(C)C)NC(=O)[C@H](Cc1c[nH]c2ccccc12)NC(=O)[C@H](CCC(N)=O)NC(=O)[C@@H](NC(=O)[C@H](Cc1ccccc1)NC(=O)[C@H](CC(=O)O)NC(=O)[C@H](CCC(N)=O)NC(=O)[C@H](C)NC(=O)[C@H](CCCNC(=N)N)NC(=O)[C@H](CCCNC(=N)N)NC(=O)[C@H](CO)NC(=O)[C@H](CC(=O)O)NC(=O)[C@H](CC(C)C)NC(=O)[C@H](Cc1ccc(O)cc1)NC(=O)[C@H](CCCCN)NC(=O)[C@H](CO)NC(=O)[C@H](Cc1ccc(O)cc1)NC(=O)CN(CCCC(=O)O)C(=O)[C@H](CO)NC(=O)[C@@H](NC(=O)[C@H](Cc1ccccc1)NC(=O)[C@@H](NC(=O)CNC(=O)[C@H](CCC(N)=O)NC(=O)[C@@H](N)CO)[C@@H](C)O)[C@@H](C)O)C(C)C)C(=O)N[C@@H](CC(N)=O)C(=O)N[C@H](C(N)=O)[C@@H](C)O`, the result on Glucagon receptor [1] was Active.
Regarding `CSCC[C@H](NC(=O)[C@H](CC(C)C)NC(=O)[C@H](Cc1c[nH]c2ccccc12)NC(=O)[C@H](CCC(N)=O)NC(=O)[C@@H](NC(=O)[C@H](Cc1ccccc1)NC(=O)[C@H](CC(=O)O)NC(=O)[C@H](CCC(N)=O)NC(=O)[C@H](C)NC(=O)[C@H](CCCNC(=N)N)NC(=O)[C@H](CCCNC(=N)N)NC(=O)[C@H](CO)NC(=O)[C@H](CC(=O)O)NC(=O)[C@H](CC(C)C)NC(=O)[C@H](Cc1ccc(O)cc1)NC(=O)[C@H](CCCCN)NC(=O)[C@H](CO)NC(=O)[C@H](Cc1ccc(O)cc1)NC(=O)C[C@H](CCC(=O)O)NC(=O)[C@H](CO)NC(=O)[C@@H](NC(=O)[C@H](Cc1ccccc1)NC(=O)[C@@H](NC(=O)CNC(=O)[C@H](CCC(N)=O)NC(=O)[C@@H](N)CO)[C@@H](C)O)[C@@H](C)O)C(C)C)C(=O)N[C@@H](CC(N)=O)C(=O)N[C@H](C(N)=O)[C@@H](C)O`, the result on Glucagon receptor [1] was Active.
In the case of `CSCC[C@H](NC(=O)[C@H](CC(C)C)NC(=O)[C@H](Cc1c[nH]c2ccccc12)NC(=O)[C@H](CCC(N)=O)NC(=O)[C@@H](NC(=O)[C@H](Cc1ccccc1)NC(=O)[C@H](CC(=O)O)NC(=O)[C@H](CCC(N)=O)NC(=O)[C@H](C)NC(=O)[C@H](CCCNC(=N)N)NC(=O)[C@H](CCCNC(=N)N)NC(=O)[C@H](CO)NC(=O)[C@H](CC(=O)O)NC(=O)[C@H](CC(C)C)NC(=O)[C@H](Cc1ccc(O)cc1)NC(=O)[C@H](CCCCN)NC(=O)[C@H](CO)NC(=O)[C@H](Cc1ccc(O)cc1)NC(=O)[C@H](CSCCC(=O)O)NC(=O)[C@H](CO)NC(=O)[C@@H](NC(=O)[C@H](Cc1ccccc1)NC(=O)[C@@H](NC(=O)CNC(=O)[C@H](CCC(N)=O)NC(=O)[C@@H](N)CO)[C@@H](C)O)[C@@H](C)O)C(C)C)C(=O)N[C@@H](CC(N)=O)C(=O)N[C@H](C(N)=O)[C@@H](C)O`, the outcome on Glucagon receptor [1] was Active.
As for `CSCC[C@H](NC(=O)[C@H](CC(C)C)NC(=O)[C@H](Cc1c[nH]c2ccccc12)NC(=O)[C@H](CCC(N)=O)NC(=O)[C@@H](NC(=O)[C@H](Cc1ccccc1)NC(=O)[C@H](CC(=O)O)NC(=O)[C@H](CCC(N)=O)NC(=O)[C@H](C)NC(=O)[C@H](CCCNC(=N)N)NC(=O)[C@H](CCCNC(=N)N)NC(=O)[C@H](CO)NC(=O)[C@H](CC(=O)O)NC(=O)[C@H](CC(C)C)NC(=O)[C@H](Cc1ccc(O)cc1)NC(=O)[C@H](CCCCN)NC(=O)[C@H](CO)NC(=O)[C@H](Cc1ccc(O)cc1)NC(=O)[C@H](CCC(=O)O)NC(=O)[C@H](CO)NC(=O)[C@@H](NC(=O)C(C)Cc1ccccc1)[C@@H](C)O)C(C)C)C(=O)N[C@@H](CC(N)=O)C(=O)N[C@H](C(N)=O)[C@@H](C)O` (some centres not stated) (HELM PEPTIDE1{[CC(Cc1ccccc1)C(=O)[*:2]].T.S.E.Y.S.K.Y.L.D.S.R.R.A.Q.D.F.V.Q.W.L.M.N.T.[am]}$$$$V2.0), the IC50 was 114 nM on Glucagon receptor [2] and 47.7 nM at Glucagon receptor [3].
In the same order, the values of `CSCC[C@H](NC(=O)[C@H](CC(C)C)NC(=O)[C@H](Cc1c[nH]c2ccccc12)NC(=O)[C@H](CCC(N)=O)NC(=O)[C@@H](NC(=O)[C@H](Cc1ccccc1)NC(=O)[C@H](CC(=O)O)NC(=O)[C@H](CCC(N)=O)NC(=O)[C@H](C)NC(=O)[C@H](CCCNC(=N)N)NC(=O)[C@H](CCCNC(=N)N)NC(=O)[C@H](CO)NC(=O)[C@H](CC(=O)O)NC(=O)[C@H](CC(C)C)NC(=O)[C@H](Cc1ccc(O)cc1)NC(=O)[C@H](CCCCN)NC(=O)[C@H](CO)NC(=O)[C@H](Cc1ccc(O)cc1)NC(=O)[C@H](CCC(=O)O)NC(=O)[C@H](CO)NC(=O)[C@@H](NC(=O)[C@@H](N)Cc1ccc2ccccc2c1)[C@@H](C)O)C(C)C)C(=O)N[C@@H](CC(N)=O)C(=O)N[C@H](C(N)=O)[C@@H](C)O` (HELM PEPTIDE1{[N[C@@H](Cc1ccc2ccccc2c1)C(=O)[*:2]].T.S.E.Y.S.K.Y.L.D.S.R.R.A.Q.D.F.V.Q.W.L.M.N.T.[am]}$$$$V2.0) are 95.2 nM and 44.1 nM.
Take `CSCC[C@H](NC(=O)[C@H](CC(C)C)NC(=O)[C@H](Cc1c[nH]c2ccccc12)NC(=O)[C@H](CCC(N)=O)NC(=O)[C@@H](NC(=O)[C@H](Cc1ccccc1)NC(=O)[C@H](CC(=O)O)NC(=O)[C@H](CCC(N)=O)NC(=O)[C@H](C)NC(=O)[C@H](CCCNC(=N)N)NC(=O)[C@H](CCCNC(=N)N)NC(=O)[C@H](CO)NC(=O)[C@H](CC(=O)O)NC(=O)[C@H](CC(C)C)NC(=O)[C@H](Cc1ccc(O)cc1)NC(=O)[C@H](CCCCN)NC(=O)[C@H](CO)NC(=O)[C@H](Cc1ccc(O)cc1)NC(=O)[C@H](CCC(=O)O)NC(=O)[C@H](CO)NC(=O)[C@@H](NC(=O)[C@@H](N)Cc1ccc(F)c(F)c1)[C@@H](C)O)C(C)C)C(=O)N[C@@H](CC(N)=O)C(=O)N[C@H](C(N)=O)[C@@H](C)O` (HELM PEPTIDE1{[N[C@@H](Cc1ccc(F)c(F)c1)C(=O)[*:2]].T.S.E.Y.S.K.Y.L.D.S.R.R.A.Q.D.F.V.Q.W.L.M.N.T.[am]}$$$$V2.0): the IC50 on Glucagon receptor [2] turned out to be 36.7 nM; at Glucagon receptor [3] it was 192 nM.
In the same order, the values of Ac-FTSEYSKYLDSRRAQDFVQWLMNT-NH2 are 37.1 nM and 130 nM.
